Consider one compound from patent publication US8252814B2, “Agents and crystals for improving excretory potency of urinary bladder” (priority 1998, dated 2012).

Test [1] addresses T1, human erythrocyte-derived acetylcholine esterase (Homo sapiens, UniProt P22303).
T1 construct: Acetylcholinesterase of human erythrocyte origin (Sigma Chemical Co.); purchased Sigma Chemical Co; host or cells: human erythrocytes (natural source)
Description: Determination of the activity to inhibit the acetylcholine esterase of the crystals (Ellman method), Experimental Example 5. The class given is biochemical. Conditions: at least three experiments. As to the method:
The activity to inhibit the acetylcholine esterase of the crystals obtained in Example 1 was determined according to the acetylthiocholine method (the Ellman method) by the use of a human erythrocyte-derived acetylcholine esterase.
A human erythrocyte-derived acetylcholine esterase (Sigma Chemical Company) was dissolved into distilled water to obtain a standard enzyme preparation with an enzyme concentration of 0.2 IU/mL. […]
The activity to inhibit the acetylcholine esterase of the crystals obtained in Example 1 was determined according to the acetylthiocholine method (the ElIman method) by the use of a human erythrocyte-derived acetylcholine esterase.
A human erythrocyte-derived acetylcholine esterase (Sigma Chemical Company) was dissolved into distilled water to obtain a standard enzyme preparation with an enzyme concentration of 0.2 IU/mL. […] As soon as 50 μl of a 4-mM solution of acetylthiocholine iodide (Sigma Chemical Company) was added and shaking was started again, every increment in absorbance at the wavelength of 414 nm at an interval of 30 seconds was determined for 10 minutes. R=5.74×10^−7×ΔA (wherein R indicates an enzyme activity (mol) and ΔA indicates an increment in absorbance at the wavelength of 414 nm). […] Furthermore, the activity to inhibit the acetylcholine esterase of distigmine was determined in a manner similar to that described in the above method.
On the technique in general: Ellman's reagent forms a yellow product with free thiols.

In test [2] the target is T2, acetylcholinesterase of human erythrocyte origin (Homo sapiens, UniProt P22303).
T2 construct: Acetylcholinesterase of human erythrocyte origin (Sigma Chemical Co.); purchased Sigma Chemical Co; host or cells: human erythrocytes (natural source)
Description: Measurement of acetylcholinesterase-inhibiting action (acetylthiocholine / Ellman method), Experimental Example 1. Conditions: at least 3 experiments. The class given is biochemical. How it is done:
Acetylcholinesterase-inhibiting action of the compounds disclosed in Reference Examples was measured using acetylcholinesterase of human erythrocyte origin according to the acetylthiocholine method (Ellman method).
Acetylcholinesterase of human erythrocyte origin (Sigma Chemical Co.) was dissolved in distilled water at a concentration of 0.2 IU/mL to give an enzyme authentic sample. To a 96-well microplate was dispensed 20 μL of drug solution, 30 μL of 80 mM Tris-HCl (pH 7.4), 50 μL of enzyme authentic sample and 50 μL of 5 mM 5,5-dithio-bis(2-nitrobenzoic acid) (Sigma Chemical Co.), and the plate was shaken for 10 seconds. Then, 50 μL of acetylthiocholine iodide (Sigma Chemical Co.) was added, and the plate was again shaken. Immediately after shaking, increase of extinction at […] was measured at intervals of 30 seconds for 10 minutes. The enzyme activity was determined according to the following equation.
The experiment was repeated at least 3 times for each compound to obtain 50% inhibitory concentration (IC50). Moreover, in the same manner as mentioned above, acetylcholinesterase-inhibiting activity of distigmine was measured.

T1 sequence (P22303 32-617 isoform P22303-2 limits assumed): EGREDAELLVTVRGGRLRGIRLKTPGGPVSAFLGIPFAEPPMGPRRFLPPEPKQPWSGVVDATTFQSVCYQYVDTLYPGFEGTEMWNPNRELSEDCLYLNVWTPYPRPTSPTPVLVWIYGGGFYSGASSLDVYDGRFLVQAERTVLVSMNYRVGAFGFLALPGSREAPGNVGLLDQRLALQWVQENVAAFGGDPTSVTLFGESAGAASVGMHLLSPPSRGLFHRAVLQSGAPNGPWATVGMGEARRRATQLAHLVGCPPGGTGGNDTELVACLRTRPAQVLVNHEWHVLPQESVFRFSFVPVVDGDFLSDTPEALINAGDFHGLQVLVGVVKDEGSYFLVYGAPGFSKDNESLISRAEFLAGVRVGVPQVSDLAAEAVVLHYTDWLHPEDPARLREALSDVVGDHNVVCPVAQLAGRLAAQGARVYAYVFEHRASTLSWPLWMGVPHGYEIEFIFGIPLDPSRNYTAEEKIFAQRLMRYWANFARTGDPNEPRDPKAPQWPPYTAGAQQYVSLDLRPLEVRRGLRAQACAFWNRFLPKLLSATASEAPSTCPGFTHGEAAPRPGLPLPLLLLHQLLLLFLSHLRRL
T2 sequence (P22303 32-617 isoform P22303-2 limits assumed): as above

One may read the IC50 as the point on the concentration scale where inhibition reaches its midpoint. A low value points to greater potency in that assay. As for `CN(CCCCCCN(C)C(=O)Oc1ccc[n+](C)c1)C(=O)Oc1ccc[n+](C)c1` [Distigmine, reference compound], the values for the IC50 in test [1] and in test [2] were 652 nM and 723 nM, respectively.
